Assay results as given in patent US9238626B2 (priority 2012, dated 2016).
Where a name gives a salt, the structure may show the parent alone. Read-outs that look alike come from different tables or passages of the source.

Experiments:
[1] = tested on: APP-PS1 mice; assay: Memory flexibility test (Morris water maze variant) in APP-PS1 mice; assay type: in vivo, mouse
[2] = target: Electrophorus electricus (ee) AChE (Electrophorus electricus (Electric eel) (Gymnotus electricus), UniProt O42275); assay: AChE inhibition assay (Ellman), eeAChE; assay type: biochemical
Sequence of Electrophorus electricus (ee) AChE (O42275 whole entry, looked up): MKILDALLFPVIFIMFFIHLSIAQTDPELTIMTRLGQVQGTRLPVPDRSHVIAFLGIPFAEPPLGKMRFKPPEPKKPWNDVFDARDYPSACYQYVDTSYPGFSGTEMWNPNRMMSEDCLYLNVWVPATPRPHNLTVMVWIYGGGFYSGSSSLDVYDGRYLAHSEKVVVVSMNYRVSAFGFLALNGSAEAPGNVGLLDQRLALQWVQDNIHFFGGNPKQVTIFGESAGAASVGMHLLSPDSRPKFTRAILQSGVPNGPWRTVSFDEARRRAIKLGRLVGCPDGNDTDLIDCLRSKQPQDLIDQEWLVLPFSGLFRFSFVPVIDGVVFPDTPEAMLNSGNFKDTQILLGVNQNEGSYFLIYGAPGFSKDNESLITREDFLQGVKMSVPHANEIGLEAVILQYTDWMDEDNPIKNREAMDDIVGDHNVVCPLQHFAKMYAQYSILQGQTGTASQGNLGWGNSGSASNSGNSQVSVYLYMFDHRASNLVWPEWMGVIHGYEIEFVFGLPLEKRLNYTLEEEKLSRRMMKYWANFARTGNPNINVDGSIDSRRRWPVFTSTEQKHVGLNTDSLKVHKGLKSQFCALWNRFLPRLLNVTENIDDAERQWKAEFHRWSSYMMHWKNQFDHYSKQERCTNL
Description: AChE inhibitory activity of compounds (Ia)-(Ie) and (−)-(Ib) and (+)-(Ib) was evaluated spectrophotometrically at 25° C. by the method of Ellman et al., using recombinant human AChE (hAChE) and Electrophorus electricus (ee) AChE and acetylthiocholine iodide as substrate (cf. G. L. Ellman et al., “New and Rapid Colorimetric Determination of Acetylcholinesterase Activity” Biochem. Pharmacol. 1961, vol. 7, pp. 88-95). For eeAChE inhibitory activity determination, the reaction took place in a final volume of 300 μL of 0.1 M phosphate-buffered solution pH 8.0, containing 0.03 unit/mL of ee AChE and 333 μM 5,5′-dithiobis(2-nitrobenzoic) acid (DTNB) solution used to produce the yellow anion of 5-thio-2-nitrobenzoic acid. Inhibition curves were performed in duplicates using at least 10 increasing concentrations of inhibitor and preincubating at 37° C. for 20 min. One duplicate sample without inhibitor was always present to yield 100% of AChE activity. Then, substrate acetylthiocholine (450 μM) was added and the reaction was developed at 37° C. for 5 min. The color production was measured at 414 nm.
Results are expressed as mean±S.E.M. of at least 4 experiments performed in duplicate. DTNB, acetylthiocholine, butyrylthiocholine, and enzymes were purchased from Sigma.

[3] = tested on: hippocampal slices treated with Aβ oligomers; assay: Synaptic protein levels of hippocampal slices in the presence of Aβ oligomers (western blot); assay type: cell-based, C57bl6 mice; settings: co-treatment with Aβ oligomers, 1 h
Description: The hippocampus of treated or control transgenic mice were dissected on ice and immediately frozen at −150° C. or processed. Briefly, hippocampal tissue were homogenized in RIPA buffer (50 mM Tris-Cl, pH 7.5, 150 mM NaCl, 1% NP-40, 0.5% sodium deoxycholate, and 1% SDS) supplemented with a protease inhibitor cocktail (Sigma-Aldrich P8340) and phosphatase inhibitors (50 mM NaF, 1 mM Na3VO4 and 30 μM Na4P207) using a Potter homogenizator and then passed sequentially through different caliber syringes. Protein samples were centrifuged at 14000 rpm at 4° C. twice for 10 min. Protein concentration was determined using the BCA Protein Assay Kit (Pierce Biotechnology, Rockford, Ill.). 20 and 40 micrograms of hippocampal samples were resolved by 10% SDS-PAGE, transferred to a PVDF membrane. The reactions were followed by incubation with primary antibodies, secondary antibodies anti-mouse, anti-goat or anti-rabbit IgG peroxidase conjugated (Pierce) and developed using an ECL kit (Western Lightning Plus ECL, Perkin Elmer).
In slices co-treated with (−)-(Ib) (FIG. 4A), the neuroprotective effect of the compound was observed.

[4] = tested on: human recombinant AChE-induced Aβ1-40 aggregation; assay: AChE-induced Aβ1-40 aggregation inhibition assay (thioflavin T); settings: inhibitor 100 μM
Description: Aβ1-40, supplied as trifluoroacetate salt, was purchased from Bachem AG (Germany). Aβ1-40 (2 mg mL^−1) was dissolved in HFIP, lyophilized, and then resolubilized in DMSO to get a 2.3 mM Aβ1-40 solution. 1 mM Solutions of tested inhibitors were prepared by dissolution in MeOH.
Aliquots of 2 μL Aβ1-40 peptide were incubated for 24 h at room temperature in 0.215 M sodium phosphate buffer (pH 8.0) at a final concentration of 230 μM. […] The final volume of each vial was 20 μL. Each assay was run in duplicate. To quantify amyloid fibril formation, the thioflavin T fluorescence method was then applied (cf. H. Naiki et al., “Kinetic Analysis of Amyloid Fibril Polymerization in Vitro”, Lab. Invest. 1991, vol. 65, pp. 104-110). The fluorescence intensities due to β-sheet conformation were monitored for 300 s at λem=490 nm (λexc=446 nm). The percent inhibition of the AChE-induced aggregation due to the presence of the tested compound was calculated by the following expression: 100−(IFi/IFo×100) where IFi and IFe are the fluorescence intensities obtained for Aβ plus AChE in the presence and in the absence of inhibitor, respectively, minus the fluorescence intensities due to the respective blanks.

[5] = target: Aβ1-42 (Homo sapiens, UniProt P05067); assay: Aβ1-42 self-aggregation inhibition assay (thioflavin T); assay type: biochemical; settings: inhibitor 10 μM, [Aβ]/[I]=5/1
Description: As reported in a previously published protocol (cf. M. Bartolini et al., “Insight into the Kinetic of Amyloid Beta (1-42) Peptide Self-Aggregation: Elucidation of Inhibitors' Mechanism of Action. ChemBioChem 2007, vol. 8, pp. 2152-2161), HFIP pretreated Aβ1-42 samples (Bachem AG, Switzerland) were solubilized with a CH3CN/0.3 mM Na2CO3250 mM NaOH (48.4:48.4:3.2) mixture to obtain a 500 μM solution. Experiments were performed by incubating the peptide in 10 mM phosphate buffer (pH=8.0) containing 10 mM NaCl, at 30° C. for 24 h (final Aβ concentration 50 μM) with and without inhibitor (10 μM, Aβ/inhibitor=5/1). Blanks containing the tested inhibitors were also prepared and tested.

[6] = tested on: APP-PS1 mice; assay: Electrophysiology (LTP) in hippocampal slices from treated APP-PS1 mice; assay type: in vivo, mouse; settings: for LTP magnitude at 60 min: compared with untreated brain slices; for LTP generation (in words): slices from treated APP-PS1 mice
[7] = target: β-Secretase (BACE-1) (Homo sapiens (Human), UniProt P56817); assay: β-Secretase (BACE-1) inhibition assay; assay type: biochemical; settings: read-out: BACE-1 IC50
Sequence of β-Secretase (BACE-1) (P56817 46-501): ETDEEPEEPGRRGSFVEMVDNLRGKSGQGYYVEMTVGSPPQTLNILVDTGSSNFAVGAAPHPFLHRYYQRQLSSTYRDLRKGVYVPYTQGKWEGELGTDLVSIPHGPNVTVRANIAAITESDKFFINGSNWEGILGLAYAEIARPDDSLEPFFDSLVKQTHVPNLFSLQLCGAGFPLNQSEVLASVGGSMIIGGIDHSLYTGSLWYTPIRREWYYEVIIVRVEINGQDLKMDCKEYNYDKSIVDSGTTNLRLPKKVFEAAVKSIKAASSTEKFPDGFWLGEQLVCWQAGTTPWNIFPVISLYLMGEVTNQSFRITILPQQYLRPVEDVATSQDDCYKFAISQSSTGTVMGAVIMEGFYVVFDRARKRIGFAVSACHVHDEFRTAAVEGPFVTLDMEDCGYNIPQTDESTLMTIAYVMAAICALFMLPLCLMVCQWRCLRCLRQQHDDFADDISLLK
Description: β-Secretase (BACE-1, Sigma) inhibition studies were performed by employing a peptide mimicking APP sequence as substrate (methoxycoumarin-[…]dinitrophenyl, M-2420, Bachem). The following procedure was employed: 5 μL of test compound (or DMSO, if preparing a control well) were pre-incubated with 175 μL of the enzyme (in 20 mM sodium acetate containing CHAPS 0.1% w/v) for 1 h at room temperature. The substrate (3 μM, final concentration) was then added and left to react for 15 min. The fluorescence signal was read at λem=405 nm (λexc=320 nm). […] The fluorescence intensities with and without inhibitor were compared and the percent inhibition due to the presence of test compounds was calculated. The background signal was measured in control wells containing all the reagents, except BACE-1 and subtracted. […] Inhibition curves were obtained by plotting the % inhibition versus the logarithm of inhibitor concentration in the assay sample. The linear regression parameters were determined and the IC50 extrapolated (GraphPad Prism 4.0, GraphPad Software Inc.).

[8] = tested on: APP-PS1 mice; assay: Neuroinflammation (astrogliosis, anti-GFAP immunostaining) in APP-PS1 mice; assay type: in vivo, mouse
[9] = 7-month-old APP-PS1 mice, FIG. 9A
[10] = 11-month-old APP-PS1 mice, FIG. 9B

SMILES | cognitive behavior in memory flexibility test (in words) ([1]; 7-month-old APP-PS1 mice) | cognitive behavior in memory flexibility test (in words) ([1]; 11-month-old APP-PS1 mice) | IC50 [2] | GluA2 protein level [3] | PSD95 protein level [3] | VGlut1 protein level [3] | synaptophysin (SYP) protein level [3] | AChE-induced Aβ1-40 aggregation (%) [4] | Aβ1-42 self-induced aggregation (%) [5] | LTP magnitude at 60 min [6] | LTP generation (in words) [6] | IC50 [7] | IC50 ([7]; stated in text) | area occupied by hyper-reactive astrocytes (GFAP), inflammatory response [8, 9] | area occupied by hyper-reactive astrocytes (GFAP), inflammatory response [8, 10] | number of trials to reach criteria ([1]; 7-month-old APP-PS1 mice, i.p. three times per week for 4 weeks, untreated about 12-13 trials) | SYN protein level [3]
CC1=C[C@@H]2Cc3nc4cc(Cl)ccc4c(NCCCCCCCCCNC(=O)c4cc(O)c5c(c4)C(=O)c4cccc(O)c4C5=O)c3[C@H](C1)C2 [(−)-(Ib)•HCl, (−)-(7S,11S)—N-{9-[(3-chloro-6,7,10,11-tetrahydro-9-methyl-7,11-methanocycloocta[b]quinolin-12-yl)amino]nonyl}-9,10-dihydro-4,5-dihydroxy-9,10-dioxoanthracene-2-carboxamide] | improved behavior within days | no significant change | 9.4 ± 1.6 nM | evident effect at 10 and 100 μM | evident effect at 10 and 100 μM | increment for every concentration | no effects were observed | 38.1 ± 0.7% | 43.2 ± 4.7% | 150% | able to generate LTP | 80 ± 10 nM | 80 nM | decrease in the inflammatory response | decrease in the inflammatory response | – | –
CC1=C[C@H]2Cc3nc4cc(Cl)ccc4c(NCCCCCCCCCNC(=O)c4cc(O)c5c(c4)C(=O)c4cccc(O)c4C5=O)c3[C@@H](C1)C2 [(+)-(Ib)•HCl, (+)-(7R,11R)—N-{9-[(3-chloro-6,7,10,11-tetrahydro-9-methyl-7,11-methanocycloocta[b]quinolin-12-yl)amino]nonyl}-9,10-dihydro-4,5-dihydroxy-9,10-dioxoanthracene-2-carboxamide] | – | took less trials to reach learning criteria | 98.9 ± 14.2 nM | increased levels of total protein with every concentration used | increased levels of total protein with every concentration used | no changes | no changes | 36.9 ± 3.4% | 38.4 ± 5.5% | 150% | able to generate LTP | 80 ± 10 nM | 80 nM | decrease in the inflammatory response | decrease in the inflammatory response | 7 trials | increased levels of total protein with every concentration used
